Data published in PubChem BioAssay (NCI).
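Grown in 96-well plates, cells were treated for 48 hours with each compound at five concentrations. Insufficient inhibition: endpoint recorded as highest concentration tested. GI50 marks 50% less growth. TGI: concentration producing complete growth inhibition.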

Legend:
Assay in all cases: NCI tumour cell line growth inhibition, 48 h
[1] = tested on: SNB-19 CNS
[2] = tested on: MOLT-4 leukemia
[3] = tested on: K-562 leukemia
[4] = tested on: UACC-257 melanoma
[5] = tested on: HOP-92 NSCLC
[6] = tested on: RXF 393 renal
[7] = tested on: SF-539 CNS
[8] = tested on: OVCAR-4 ovarian
[9] = tested on: LOX IMVI melanoma
[10] = tested on: 786-0 renal
[11] = tested on: SK-MEL-28 melanoma
[12] = tested on: OVCAR-8 ovarian
[13] = tested on: NCI-H460 lung
[14] = tested on: SW-620 colon
[15] = tested on: UO-31 renal
[16] = tested on: HL-60(TB) leukemia
[17] = tested on: HCC-2998 colon
[18] = tested on: HCT-116 colon
[19] = tested on: BT-549 breast
[20] = tested on: M14 melanoma
[21] = tested on: NCI/ADR-RES ovarian
[22] = tested on: U251 CNS
[23] = tested on: PC-3 prostate
[24] = tested on: MALME-3M melanoma
[25] = tested on: SK-OV-3 ovarian
[26] = tested on: OVCAR-3 ovarian
[27] = tested on: RPMI-8226 leukemia
[28] = tested on: SR leukemia
[29] = tested on: NCI-H522 lung
[30] = tested on: SN12C renal
[31] = tested on: DU-145 prostate
[32] = tested on: SNB-75 CNS
[33] = tested on: MDA-MB-231 breast
[34] = tested on: SF-268 CNS
[35] = tested on: SK-MEL-2 melanoma
[36] = tested on: SF-295 CNS
[37] = tested on: A498 renal
[38] = tested on: MDA-MB-435
[39] = tested on: KM12 colon
[40] = tested on: EKVX NSCLC
[41] = tested on: NCI-H226 lung
[42] = tested on: SK-MEL-5 melanoma
[43] = tested on: HT29 colon
[44] = tested on: CCRF-CEM leukemia
[45] = tested on: HCT-15 colon
[46] = tested on: CAKI-1 renal
[47] = tested on: T-47D breast
[48] = tested on: COLO 205 colon
[49] = tested on: IGROV1 ovarian
[50] = tested on: MCF7 breast
[51] = tested on: HS 578T breast
[52] = tested on: ACHN renal
[53] = tested on: UACC-62 melanoma
[54] = tested on: TK-10 renal
[55] = tested on: OVCAR-5 ovarian
[56] = tested on: A549 NSCLC
[57] = tested on: NCI-H23 lung
[58] = tested on: HOP-62 NSCLC
[59] = tested on: MDA-N

Compound: COc1ccccc1Cn1cc2c(c1)-c1oncc1CC2
- GI50 [1]: 0.625 µM
- TGI [1]: > 100 µM
- GI50 [2]: 0.477 µM
- TGI [2]: 14.8 µM
- GI50 [3]: 0.391 µM
- TGI [3]: > 33.5 µM
- GI50 [4]: 10.4 µM
- TGI [4]: > 63.6 µM
- GI50 [5]: 2.75 µM
- TGI [5]: 57.7 µM
- GI50 [6]: 1.31 µM
- TGI [6]: > 21.4 µM
- GI50 [7]: 0.453 µM
- TGI [7]: 5.13 µM
- GI50 [8]: 3.86 µM
- TGI [8]: 97.9 µM
- GI50 [9]: 0.946 µM
- TGI [9]: 23.1 µM
- GI50 [10]: 2.44 µM
- TGI [10]: 29.7 µM
- GI50 [11]: 2.52 µM
- TGI [11]: > 100 µM
- GI50 [12]: 1.92 µM
- TGI [12]: > 50.8 µM
- GI50 [13]: 0.334 µM
- TGI [13]: 4.75 µM
- GI50 [14]: 0.351 µM
- TGI [14]: > 100 µM
- GI50 [15]: 4.28 µM
- TGI [15]: 42.7 µM
- GI50 [16]: 0.268 µM
- TGI [16]: 0.814 µM
- GI50 [17]: 0.873 µM
- TGI [17]: 6.87 µM
- GI50 [18]: 0.39 µM
- TGI [18]: 13.6 µM
- GI50 [19]: 7.5 µM
- TGI [19]: > 100 µM
- GI50 [20]: 0.549 µM
- TGI [20]: > 41.9 µM
- GI50 [21]: 0.529 µM
- TGI [21]: 3.7 µM
- GI50 [22]: 0.503 µM
- TGI [22]: 39 µM
- GI50 [23]: 2.01 µM
- TGI [23]: > 100 µM
- GI50 [24]: 1.41 µM
- TGI [24]: > 100 µM
- GI50 [25]: 0.46 µM
- TGI [25]: 8.44 µM
- GI50 [26]: 0.307 µM
- TGI [26]: 0.888 µM
- GI50 [27]: 0.454 µM
- GI50 [28]: 0.379 µM
- TGI [28]: 8.95 µM
- GI50 [29]: 1.22 µM
- TGI [29]: 5.08 µM
- GI50 [30]: 0.728 µM
- TGI [30]: > 100 µM
- GI50 [31]: 0.357 µM
- TGI [31]: 3.4 µM
- GI50 [32]: 0.396 µM
- TGI [32]: 9.7 µM
- GI50 [33]: 1.34 µM
- TGI [33]: > 100 µM
- GI50 [34]: 1.21 µM
- TGI [34]: > 75.1 µM
- GI50 [35]: 4.43 µM
- TGI [35]: 72.7 µM
- GI50 [36]: 0.375 µM
- TGI [36]: 3.88 µM
- GI50 [37]: 0.269 µM
- TGI [37]: 3.44 µM
- GI50 [38]: 0.208 µM
- TGI [38]: 0.545 µM
- GI50 [39]: 0.435 µM
- TGI [39]: 6.94 µM
- GI50 [40]: 0.83 µM
- TGI [40]: > 94.2 µM
- GI50 [41]: 6.99 µM
- TGI [41]: > 100 µM
- GI50 [42]: 0.45 µM
- TGI [42]: 6.77 µM
- GI50 [43]: 0.351 µM
- TGI [43]: 11.7 µM
- GI50 [44]: 0.29 µM
- GI50 [45]: 0.535 µM
- TGI [45]: > 61.2 µM
- GI50 [46]: 0.545 µM
- TGI [46]: > 55.8 µM
- GI50 [47]: 2.15 µM
- TGI [47]: > 100 µM
- GI50 [48]: 0.553 µM
- TGI [48]: 2.43 µM
- GI50 [49]: 1.84 µM
- TGI [49]: > 78.7 µM
- GI50 [50]: 0.381 µM
- TGI [50]: > 66.5 µM
- GI50 [51]: 0.384 µM
- TGI [51]: 3.03 µM
- GI50 [52]: 2.12 µM
- TGI [52]: > 100 µM
- GI50 [53]: 1.11 µM
- TGI [53]: > 100 µM
- GI50 [54]: 2.67 µM
- TGI [54]: > 78 µM
- GI50 [55]: 0.756 µM
- TGI [55]: > 74.1 µM
- GI50 [56]: 0.825 µM
- TGI [56]: > 75 µM
- GI50 [57]: 0.8 µM
- TGI [57]: > 55.3 µM
- GI50 [58]: 1.02 µM
- TGI [58]: > 100 µM

Compound: Oc1ccc(-c2c3c(nc4c2CCc2ccc(Br)cc2-4)-c2cc(Br)ccc2CC3)cc1
- TGI [1]: 46.9 µM
- TGI [4]: 69.4 µM
- TGI [5]: 31.1 µM
- TGI [8]: 48 µM
- TGI [10]: 37.4 µM
- TGI [11]: 38.9 µM
- TGI [13]: 53.2 µM
- TGI [15]: 38.4 µM
- TGI [17]: 40.1 µM
- TGI [18]: 53.7 µM
- TGI [19]: 43.1 µM
- TGI [20]: 55.1 µM
- TGI [21]: 46 µM
- TGI [22]: 34.2 µM
- TGI [23]: 31.9 µM
- TGI [24]: 50.4 µM
- TGI [25]: 30.6 µM
- TGI [26]: 29.5 µM
- TGI [27]: 77.3 µM
- TGI [29]: 42.7 µM
- TGI [30]: 43.6 µM
- TGI [31]: 59.5 µM
- TGI [32]: 54.9 µM
- TGI [33]: 34.5 µM
- TGI [34]: 39.9 µM
- TGI [59]: 40.7 µM
- TGI [35]: 35 µM
- TGI [36]: 31.7 µM
- TGI [37]: 48.6 µM
- TGI [38]: 45 µM
- TGI [39]: 42.5 µM
- TGI [40]: 46.1 µM
- TGI [41]: 48 µM
- TGI [42]: 35.7 µM
- TGI [45]: 35.5 µM
- TGI [46]: 33 µM
- TGI [47]: 42.6 µM
- TGI [48]: 32.4 µM
- TGI [49]: 30.7 µM
- TGI [50]: 43.1 µM
- TGI [52]: 45.2 µM
- TGI [53]: 44.2 µM
- TGI [54]: 45.4 µM
- TGI [55]: 40.6 µM
- TGI [56]: 40.8 µM
- TGI [57]: 38.7 µM
- TGI [58]: 33.6 µM

Compound: CO[C@H]1C=C[C@]23c4cc5c(cc4CN(CC2O)[C@@H]3C1)OCO5 (stereo not given in full)
- TGI [1]: 40.9 µM
- TGI [2]: 8.97 µM
- TGI [3]: > 100 µM
- TGI [4]: 42.8 µM
- TGI [5]: 2.74 µM
- TGI [7]: 14.6 µM
- TGI [8]: 11.3 µM
- TGI [9]: 21.3 µM
- TGI [10]: 16.5 µM
- TGI [11]: 54.9 µM
- TGI [12]: 38.5 µM
- TGI [13]: 36.1 µM
- TGI [14]: > 100 µM
- TGI [15]: 8.47 µM
- TGI [16]: 0.32 µM
- TGI [17]: 16.7 µM
- TGI [18]: 19.3 µM
- TGI [19]: 13.7 µM
- TGI [20]: > 100 µM
- TGI [21]: 58.8 µM
- TGI [22]: 38.3 µM
- TGI [23]: 18.6 µM
- TGI [24]: 20.4 µM
- TGI [25]: 3.3 µM
- TGI [26]: 22.3 µM
- TGI [27]: > 100 µM
- TGI [29]: 16 µM
- TGI [30]: 29.4 µM
- TGI [31]: 7.62 µM
- TGI [32]: 30.4 µM
- TGI [33]: 34.6 µM
- TGI [34]: 32.7 µM
- TGI [59]: 64.8 µM
- TGI [35]: 6.31 µM
- TGI [36]: 4.14 µM
- TGI [37]: 9.66 µM
- TGI [38]: 41.9 µM
- TGI [39]: 28.3 µM
- TGI [40]: 52.2 µM
- TGI [41]: 61.3 µM
- TGI [42]: 17.8 µM
- TGI [43]: 39.7 µM
- TGI [45]: 24.9 µM
- TGI [46]: > 100 µM
- TGI [47]: 18.2 µM
- TGI [48]: 17.9 µM
- TGI [49]: 26 µM
- TGI [51]: 81.9 µM
- TGI [52]: 6.73 µM
- TGI [53]: 19.6 µM
- TGI [54]: > 100 µM
- TGI [55]: > 100 µM
- TGI [56]: 44.9 µM
- TGI [57]: 33 µM
